Data set [1] can be described thus: Solubility in volatile organic solvents. The data set is classed as physicochemical. Particulars: for solubility: organic solvent or mixture. An excerpt: The drug is poorly soluble in volatile organic solvents. By “volatile organic solvent” is meant a solvent selected from the group consisting of acetone, methanol, tetrahydrofuran, ethyl acetate, mixtures of any one of these with water, and mixtures of these with each other. […] As used herein, the solubility is assumed to be measured at ambient temperature and pressure.

Data set [2] in a line: Aqueous solubility of neutral form of drug (MFD or PBS solution, pH 6.5). In kind it is physicochemical.
Protocol: Solubility may be measured at 25° C. in water or a phosphate buffered saline (PBS) solution adjusted to a pH between 6 and 7.
An appropriate PBS solution is an aqueous solution comprising 20 mM sodium phosphate (Na2HPO4), 47 mM potassium phosphate (KH2PO4), 87 mM NaCl, and 0.2 mM KCl, adjusted to pH 6.5 with NaOH. An appropriate MFD solution is the same PBS solution wherein there is also present 7.3 mM sodium taurocholic acid and 1.4 mM of 1-palmitoyl-2-oleyl-sn-glycero-3-phosphocholine. In particular, a composition of the present invention may be dissolution-tested by adding it to MFD or PBS solution and agitating to promote dissolution.
The nature of data set [3]: Acidic pKa. The data set is classed as physicochemical. Particulars: for pKa: distilled water.
Description: Here, the term pKa is used in its traditional form, the pKa being the negative logarithm of the acid ionization constant.
Data set [4] can be described thus: In vitro dissolution test of Drug 1 dispersions in MFD solution. Particulars: 37° C. In kind it is physicochemical. As for the experimental part:
For these tests, suspensions were formed by adding a sufficient quantity of the dispersions of Example 1 or Example 2 to water containing 0.5 wt % Methocel Type A such that each suspension contained 7.2 mgA/mL Drug 1. Next, a 50 μL sample of each suspension was added to microcentrifuge tubes in duplicate. […] HPLC analysis was performed using an Zorbax RX-C18 4.6×75 mm […] column, with a mobile phase of 63/37 v/v aqueous 0.1 wt % trifluoroacetic acid/acetonitrile, and UV absorbance measured at 220 nm.
The concentrations of dissolved Drug 1 obtained in these samples were used to determine the maximum dissolved concentration of Drug 1 in solution during the first ninety minutes of the test (MDC90), the area under the concentration-versus-time curve during the initial ninety minutes (“AUC90”), and the concentration of Drug 1 at 1200 minutes (“C1200”).

Data set [5] can be described thus: In vitro dissolution test of Drug 2 dispersion in MFD solution. In kind it is physicochemical. The conditions noted are these: 37° C.
Protocol: Next, a 50 μL sample of this suspension was added to microcentrifuge tubes in duplicate. The tubes were placed in a 37° C. temperature-controlled chamber, and 1.75 mL MFD solution was added to each respective tube. […] The samples were quickly mixed using a vortex mixer for about 60 seconds. The samples were centrifuged at 13,000 G at 37° C. for 1 minute. The resulting supernatant solution was then sampled and diluted 1:6 (by volume) with methanol and then analyzed by high-performance liquid chromatography (HPLC). HPLC analysis was performed using an Agilent RX-C18 4.6×75 mm 3.5 μM column, with a mobile phase of 65/35 v/v 0.1 wt % trifluoroacetic acid/acetonitrile, and UV absorbance measured at 220 nm. The contents of each respective tube were mixed on the vortex mixer and allowed to stand undisturbed at 37° C. until the next sample was taken. Samples were collected at 4, 10, 20, 40, 90, and 1200 minutes.
For data set [6] the following is noted: dissolved Drug 3; dispersion pre-suspended in 0.5 wt % Methocel A + 15 mg/mL HPMCAS-HF in PBS, then MFD; 200 μgA/mL dosed; Control 3 as in Example 5 test.
Protocol: The test was run in duplicate. The tubes were placed in a 37° C. temperature-controlled chamber, and 1.8 mL MFD solution at pH 6.5 and 290 mOsm/kg, was added to each respective tube. The samples were quickly mixed using a vortex mixer for about 60 seconds. The samples were centrifuged at 13,000 G at 37° C. for 1 minute. The resulting supernatant solution was then sampled and diluted 1:6 (by volume) with methanol and analyzed by high-performance liquid chromatography (HPLC). HPLC analysis was performed using a Waters Symmetry C8 column. The mobile phase consisted of 45% 20 mM KH2PO4, adjusted to pH 3, 30% acetonitrile, and 25% methanol. UV absorbance was measured at 270 nm. The contents of each tube were mixed on the vortex mixer and allowed to stand undisturbed at 37° C. until the next sample was taken. Samples were collected at 4, 10, 20, 40, 90, and 1200 minutes.
The solution was then analyzed for dissolved Drug 3 concentration versus time, as previously described.
A short description of data set [7]: In vitro dissolution test of Drug 3 dispersion in MFD solution. The data set is classed as physicochemical. Particulars: dissolved Drug 3, initial 90 min; MFD solution pH 6.5, 37° C., 200 μgA/mL dosed.

Each structure is given as a SMILES string. ≈ marks a conversion by molar mass, not a printed value. Like-named read-outs stand apart in the source and are kept apart here.

For `Nc1nc(C(=O)NCC2CC2)nc2c1[nH]c(=O)n2Cc1ccccc1` [Drug 1, 6-amino-9-benzyl-8-oxo-8,9-dihydro-7H-purine-2-carboxylic acid cyclopropylmethyl-amide], the solubility in data set [1] (acetone, read-out: solubility in acetone) was 25 µg/mL (≈ 73.9 µM); in data set [1] (methanol, read-out: solubility in methanol) it was 59 µg/mL (≈ 174 µM); in data set [2] (fassif, MFD solution pH 6.5, read-out: solubility in a pH 6.5 MFD solution), around 3 µg/mL (≈ 8.87 µM). In data set [1] (crystalline neutral form, methanol), the solubility in methanol entry is given as “about 0.059 mgA/mL”. Moreover, the pKa in data set [3] came out at 7.3. The compound also registered a C1200 in data set [4] (Drug 1 concentration at 1200 minutes) below 0.1 µg/mL. Besides, the MDC90 in data set [4] (dissolved Drug 1, first 90 min, 200 μgA/mL dosed) is 1 µg/mL. The AUC90 in data set [4] (dissolved Drug 1, initial 90 min, 200 μgA/mL dosed) was below 88 µg·min/mL.
For the compound `Nc1nc(C(F)(F)F)cc2c1[nH]c(=O)n2Cc1ccccc1` [Drug 2, 4-amino-1-benzyl-6-trifluoromethyl-1,3-dihydro-imidazo[4,5-c]pyridine-2-one], in data set [3], the pKa was 11.3. In data set [5] (Drug 2 concentration at 1200 minutes), this compound yielded a C1200 of 1.0 µg/mL. The AUC90 in data set [5] (dissolved Drug 2, initial 90 min, 200 μgA/mL dosed) amounted to 44 µg·min/mL.
In the case of `Cc1c(S(=O)(=O)c2ccc(=O)[nH]n2)oc2ccc(Cl)cc12` [Drug 3, 6-(5-chloro-3-methyl-benzofuran-2-sulfonyl)-2H-pyridazin-3-one], the AUC90 in data set [6] and in data set [7] was 540 min*μgA/mL in each case. In addition, the MDC90 in data set [6] and in data set [7] was 8 μgA/mL each time. In addition, the solubility was around 12000 µg/mL (≈ 37000 µM) in data set [1] (THF, 25° C., neutral form, read-out: solubility in THF at 25° C.); around 4700 µg/mL (≈ 14500 µM) in data set [1] (acetone, 25° C., neutral form, read-out: solubility in acetone at 25° C.); around 1500 µg/mL (≈ 4620 µM) in data set [1] (methanol, 25° C., neutral form, read-out: solubility in methanol at 25° C.); below 1 µg/mL in data set [2] (phosphate buffered saline, aqueous buffer, PBS pH 6.5, read-out: solubility in phosphate buffered saline solution at pH of 6.5). Also, the “acidic pKa” value in data set [3] is 6.9.

Broadly, the solubility is how much of the substance goes into solution per volume. The pKa is the negative logarithm of the acid dissociation constant.

The record behind these values is patent publication US8372836B2, “Spray dried formulation” (Bend Research, Inc., priority 2006, dated 2013).
